Experimental data published in US10174033B2, “N6-substituted adenosine derivatives and N6-substituted adenine derivatives and uses thereof” (INSTITUTE OF MATERIA MEDICA, CHINESE ACADEMY OF MEDICAL …, priority 2009, dated 2019).

What follows are compounds tested on male ICR-mice (assay: Potentiation of sodium pentobarbital sleeping time test). Details: intraperitoneal, 1 mg/kg, 38 mg/kg sodium pentobarbital 30 min later.
Type: in vivo
Method: Effects of N^6-substituted adenosine derivatives and/or N^6-substituted adenine derivatives on sodium pentobarbital-induced sleeping time in mice.
Name of Experiment: Potentiation of sodium pentobarbital sleeping time test.
Method of Experiment: Groups of 8-10 male ICR-mice with an average weight of 18-22 g were used. They were dosed orally or i.p. with the test compound or the vehicle. Thirty min after i.p. injection or 60 min after oral dosing 38 mg/kg sodium pentobarbital were injected intravenously. The latency and duration of sleep (loss of righting reflex) were recorded. The percentage of prolongation of sleeping time was calculated as: [(sleeping time of experimental group)−(sleeping time of control group)]/(sleeping time of control group)×100%.
For `Cc1ccc(CNc2ncnc3c2ncn3[C@@H]2O[C@H](CO)[C@@H](O)[C@H]2O)cc1` [Example 4, N^6-(p-methylbenzyl)-adenosine], the “Sleep prolonging rate (%)” value was 51%.
For `COc1cc(CNc2ncnc3c2ncn3[C@@H]2O[C@H](CO)C(O)C2O)cc(OC)c1OC` (stereo partly drawn) [Example 37, N^6-(3,4,5-trimethxoybenzyl)-adenosine], the “Sleep prolonging rate (%)” value was 112%.
For `Cc1cccc(CNc2ncnc3c2ncn3[C@@H]2O[C@H](CO)[C@@H](O)[C@H]2O)c1` [Example 5, N^6-(m-methylbenzyl)-adenosine], the “Sleep prolonging rate (%)” value was 84%.

Same assay, conditions: intraperitoneal, 5 mg/kg, 38 mg/kg sodium pentobarbital 30 min later
With `O=C(O)[C@H](Cc1ccc(O)cc1)Nc1ncnc2c1ncn2[C@@H]1O[C@H](CO)C(O)C1O` (stereo partly drawn) [Example 107, N-(6-adenosine)-(L)-tyrosine] the “Sleep prolonging rate (%)” value was 66%.
`O=C(O)[C@H](Cc1c[nH]c2ccccc12)Nc1ncnc2c1ncn2[C@@H]1O[C@H](CO)C(O)C1O` (stereo partly drawn) [Example 112, N-(6-adenosine)-(D)-tryptophan] was tested, and the “Sleep prolonging rate (%)” value was 89%.
With `OC[C@H]1O[C@@H](n2cnc3c(NCc4cccs4)ncnc32)[C@H](O)[C@@H]1O` [Example 19, N^6-(2-thiopheneylmethyl)-adenosine] the “Sleep prolonging rate (%)” value was 12%.

Same assay, conditions: oral, 2.5 mg/kg, 38 mg/kg sodium pentobarbital 60 min later
With `CC[C@H](Nc1ncnc2c1ncn2[C@@H]1O[C@H](CO)[C@@H](O)[C@H]1O)c1ccccc1` [Example 78, N^6-[(S)-1-(phenyl)-propyl]-adenosine] the “Sleep prolonging rate (%)” value was 49%.
In the case of `CC[C@@H](Nc1ncnc2c1ncn2[C@@H]1O[C@H](CO)[C@@H](O)[C@H]1O)c1ccccc1` [Example 75, N^6-[(R)-1-(phenyl)-propyl]-adenosine], the “Sleep prolonging rate (%)” value is reported as 183%.
With `CCC(Nc1ncnc2c1ncn2[C@@H]1O[C@H](CO)[C@@H](O)[C@H]1O)c1ccc(OC)cc1` (mixture of isomers) [Example 74, N^6-[(±)-1-(4-methoxyphenyl)-propyl]-adenosine] the “Sleep prolonging rate (%)” value was 86%.

Same assay, conditions: oral, 5 mg/kg, 38 mg/kg sodium pentobarbital 60 min later
`CCCC(=O)OC[C@H]1O[C@@H](n2cnc3c(NCc4ccc(OC(=O)CCC)c(OC)c4)ncnc32)[C@@H](O)C1O` (stereo partly drawn) [N^6-(3-methoxy-4-butanoyloxy-benzyl)-adenosine-5′-butyrate] was tested, and the “Sleep prolonging rate (%)” value was 11%.
`COc1cccc([C@@H](C)Nc2ncnc3c2ncn3[C@@H]2O[C@H](CO)[C@@H](O)[C@H]2O)c1` [Example 65, N^6-[(R)-1-(3-methoxyphenyl)-ethyl]-adenosine] was tested, and the “Sleep prolonging rate (%)” value was 160%.
`COc1cc(C(C)Nc2ncnc3c2ncn3[C@H]2C[C@H](O)[C@@H](CO)O2)cc(OC)c1OC` (mixture of isomers) [Example 157, N^6-[(±)-1-(3,4,5-trimethoxyphenyl)-ethyl]-2′-deoxy-adenosine] was tested, and the “Sleep prolonging rate (%)” value was 9%.
`COc1ccc(CCC(=O)OC[C@H]2O[C@@H](n3cnc4c(NC(C)c5cc(OC)c(OC)c(OC)c5)ncnc43)C(O)C2O)cc1` (mixture of isomers) [Example 54, N^6-[(±)-1-(3,4,5-trimethoxyphenyl)-ethyl]-adenosine-5′-p-methoxy-phenyl propionate] was tested, and the “Sleep prolonging rate (%)” value was 76%.
With `OCCN(Cc1ccccc1)c1ncnc2c1ncn2[C@@H]1O[C@H](CO)[C@@H](O)[C@H]1O` [Example 138, N^6-(2-hydroxyethyl)-N^6-benzyl-adenosine] the “Sleep prolonging rate (%)” value was 18%.
With `CC(Nc1ncnc2c1ncn2[C@@H]1O[C@H](CO)[C@@H](O)[C@H]1O)c1ccc(O)cc1` (mixture of isomers) [Example 47, N^6-[(±)-1-(4-hydroxyphenyl)-ethyl]-adenosine] the “Sleep prolonging rate (%)” value was 50%.
In the case of `CCCCCCCC(=O)OCC1OC(n2cnc3c(NCc4ccc5c(c4)OCO5)ncnc32)C2OC(C)(C)OC12` (stereo not drawn) [N^6-(3,4-methylenedioxybenzyl)-2′,3′-O-isopropylidene-adenosine-5′-caprylate], the “Sleep prolonging rate (%)” value is reported as 4%.
In the case of `OC[C@H]1O[C@@H](n2cnc3c(NC(c4ccccc4)c4ccccc4)ncnc32)[C@H](O)[C@@H]1O` [Example 95, N^6-(diphenylmethyl)-adenosine], the “Sleep prolonging rate (%)” value is reported as 16%.
For `CCOC(=O)[C@H](Cc1ccc(O)cc1)Nc1ncnc2c1ncn2[C@@H]1O[C@H](CO)C(O)C1O` (stereo partly drawn) [Example 109, N-(6-adenosine)-(L)-tyrosine ethyl ester], the “Sleep prolonging rate (%)” value was 36%.
With `C[C@@H](Nc1ncnc2c1ncn2[C@@H]1O[C@H](CO)[C@@H](O)[C@H]1O)c1ccc(F)cc1` [Example 70, N^6-[(R)-1-(4-fluorophenyl)-ethyl]-adenosine] the “Sleep prolonging rate (%)” value was 136%.
With `CC[C@@H](Nc1ncnc2c1ncn2[C@@H]1O[C@H](COc2ccccc2[N+](=O)[O-])C(O)[C@@H]1O)c1ccccc1` (stereo partly drawn) [Example 85, N^6-[(R)-1-(phenyl)-propyl]-adenosine-5′-o-nitrophenyl ether] the “Sleep prolonging rate (%)” value was 87%.
In the case of `CCOC(=O)[C@@H](Cc1ccc(O)cc1)Nc1ncnc2c1ncn2[C@@H]1O[C@H](CO)C(O)C1O` (stereo partly drawn) [Example 108, N-(6-adenosine)-(D)-tyrosine ethyl ester], the “Sleep prolonging rate (%)” value is reported as 32%.
`OC[C@H]1O[C@@H](n2cnc3c(NC4CCCc5c(O)cccc54)ncnc32)[C@H](O)[C@@H]1O` (mixture of isomers) [Example 97, N^6-[(±)-(5-hydroxy-1,2,3,4-tetrahydro-naphthalene-1-yl)]-adenosine] was tested, and the “Sleep prolonging rate (%)” value was 39%.
With `CCCOC[C@H]1O[C@@H](n2cnc3c(NCc4ccc5c(c4)OCO5)ncnc32)C(O)C1O` (stereo partly drawn) [Example 35, N^6-(3,4-methylenedioxybenzyl)-adenosine-5′-propyl ether] the “Sleep prolonging rate (%)” value was 36%.
In the case of `CCCCCCCC(=O)OC[C@H]1O[C@@H](n2cnc3c(NC(C)c4cc(OC)c(OC)c(OC)c4)ncnc32)[C@H](O)[C@@H]1O` (mixture of isomers) [Example 53, N^6-[(±)-1-(3,4,5-trimethoxyphenyl)-ethyl]-adenosine-5′-caprylate], the “Sleep prolonging rate (%)” value is reported as 130%.
For `Cc1ccc([C@@H](C)Nc2ncnc3c2ncn3[C@@H]2O[C@H](CO)[C@@H](O)[C@H]2O)cc1` [Example 59, N^6-[(R)-1-(4-methylphenyl)-ethyl]-adenosine], the “Sleep prolonging rate (%)” value was 99%.
With `COc1cc(C(C)Nc2ncnc3c2ncn3[C@@H]2O[C@H](CO)[C@@H](O)[C@H]2O)ccc1O` (mixture of isomers) [Example 50, N^6-[(±)-1-(3-methoxy-4-hydroxy-phenyl)-ethyl]-adenosine] the “Sleep prolonging rate (%)” value was 119%.
In the case of `COc1cc(CNc2ncnc3c2ncn3[C@H]2C[C@@H](OC(C)=O)[C@@H](COC(C)=O)O2)ccc1O` [Example 148, N^6-(3-methoxy-4-hydroxy-benzyl)-2′-deoxy-3′,5′-diacetyl adenosine], the “Sleep prolonging rate (%)” value is reported as 71%.
For `CSCC[C@@H](CO)Nc1ncnc2c1ncn2[C@@H]1O[C@H](CO)C(O)C1O` (stereo partly drawn) [Example 132, N^6-[(L)-2-(1-hydroxy-4-methylthioyl)-butyl]-adenosine], the “Sleep prolonging rate (%)” value was 53%.
With `CC(C(O)c1ccccc1)N(C)c1ncnc2c1ncn2[C@@H]1O[C@H](CO)C(O)C1O` (mixture of isomers) [Example 137, N^6-methyl-N^6-[(±)-2-(1-hydroxy-1-phenyl)-propyl]-adenosine] the “Sleep prolonging rate (%)” value was 92%.
For `COC(=O)[C@@H](Cc1ccccc1)Nc1ncnc2c1ncn2[C@@H]1O[C@H](CO)C(O)C1O` (stereo partly drawn) [Example 105, N-(6-adenosine)-(D)-phenylalanine methyl ester], the “Sleep prolonging rate (%)” value was 2%.
With `CCCCCCCC(=O)OC[C@H]1O[C@@H](n2cnc3c(NCc4ccc5c(c4)OCO5)ncnc32)[C@H](O)[C@@H]1O` [Example 32, N^6-(3,4-methylenedioxybenzyl)-adenosine-5′-caprylate] the “Sleep prolonging rate (%)” value was 26%.
“N^6-[(R)-1-(phenyl)-propyl]-2′,3′-O-isopropylidene-adenosine-5′-acetate” was tested, and the “Sleep prolonging rate (%)” value was 18%.
`CCN(CCO)c1ncnc2c1ncn2[C@@H]1O[C@H](CO)[C@@H](O)[C@H]1O` [Example 139, N^6-ethyl-N^6-(2-hydroxyethyl)-adenosine] was tested, and the “Sleep prolonging rate (%)” value was 5%.
In the case of `COc1ccc2c(c1)CCCC2Nc1ncnc2c1ncn2[C@@H]1O[C@H](CO)[C@@H](O)[C@H]1O` (mixture of isomers) [Example 96, N^6-[(±)-(6-methoxy-1,2,3,4-tetrahydro-naphthalene-1-yl)]-adenosine], the “Sleep prolonging rate (%)” value is reported as 170%.
In the case of `CCCCCCCCCCCC(=O)OCC1OC(n2cnc3c(NCc4ccc(OC(=O)CCCCCCCCCCC)c(OC)c4)ncnc32)C2OC(C)(C)OC12` (stereo not drawn) [Example 25, N^6-(3-methoxy-4-lauroyloxybenzyl)-2′,3′-O-isopropylidene-adenosine-5′-laurate], the “Sleep prolonging rate (%)” value is reported as 27%.
In the case of `Cc1ccc(CNc2ncnc3c2ncn3[C@H]2C[C@H](O)[C@@H](CO)O2)cc1` [Example 151, N^6-(p-methylbenzyl)-2′-deoxy-adenosine], the “Sleep prolonging rate (%)” value is reported as 34%.
In the case of `OC[C@H]1O[C@@H](n2cnc3c(NC4c5ccccc5-c5ccccc54)ncnc32)[C@H](O)[C@@H]1O` [Example 98, N^6-(fluorene-9-yl)-adenosine], the “Sleep prolonging rate (%)” value is reported as 53%.
With `C[C@H](Nc1ncnc2c1ncn2[C@@H]1O[C@H](CO)[C@@H](O)[C@H]1O)c1ccc(F)cc1` [Example 71, N^6-[(S)-1-(4-fluorophenyl)-ethyl]-adenosine] the “Sleep prolonging rate (%)” value was 24%.

These compounds were tested on mice (assay: Sub-threshold hypnotic dose sodium pentobarbital induced sleeping test). Details: intraperitoneal, 1 mg/kg, 30 min before sub-threshold sodium pentobarbital (22 mg/kg ip).
Type: in vivo
Method: N^6-substituted adenosine derivatives and/or N^6-substituted adenine derivatives potentiated sodium pentobarbital-induced sleep in mice
Name of Experiment: Sub-threshold hypnotic dose sodium pentobarbital induced sleeping test
Method of Experiment: Mice (n=7-10) were pretreated with test compound or vehicle, after 30 min, a maximal sub-threshold hypnotic dose of sodium pentobarbital (22 mg/kg) was given intraperitoneally (ip). (On some condition, the sub-threshold dosage of sodium pentobarbital should be optimized to the maximum dose, at which the rate of sleep onset of vehicle group is less than 10%). […] Following sodium pentobarbital injection, each mouse was observed 15 min for onset of sleep. The percentage of sleep onset was calculated as: (number of animals falling asleep/total number of animals)×100%.
For `O=[N+]([O-])c1ccccc1CNc1ncnc2c1ncn2[C@@H]1O[C@H](CO)[C@@H](O)[C@H]1O` [Example 9, N^6-(o-nitrobenzyl)-adenosine], the “Sleep rate (%)” value was 100%.
